# Measurements: EP4729529A1, “PREPARATION OF PEPTIDE INHIBITOR OF INTERLEUKIN-23 RECEPTOR AND USE THEREOF” (Xizang Haisco Pharmaceutical Co., Ltd., priority 2023, dated 2024)
# Positions of bridges follow the written chain, without caps; N, C: chain ends. Non-standard residues stand in square brackets, D forms with d. Residues, ends and D or L forms follow the SMILES beside them. Phe(4-OC2H4NH2,2,3-(CH2)3) = NCCOc1ccc(C[C@H](N)C(=O)O)c2c1CCC2; Trp(7-Me) = Cc1cccc2c(C[C@H](N)C(=O)O)c[nH]c12; 2Nal = N[C@@H](Cc1ccc2ccccc2c1)C(=O)O; 3Pal = N[C@@H](Cc1cccnc1)C(=O)O; Pen = CC(C)(S)[C@H](N)C(=O)O; Thp = NC1(C(=O)O)CCOCC1; Sar = CNCC(=O)O
# Target: T1, IL-23R (Homo sapiens, UniProt Q5VWK5)
# T1 construct: host or cells: HEK-blue IL23 reporter gene cell line
# T1 sequence (Q5VWK5 24-629): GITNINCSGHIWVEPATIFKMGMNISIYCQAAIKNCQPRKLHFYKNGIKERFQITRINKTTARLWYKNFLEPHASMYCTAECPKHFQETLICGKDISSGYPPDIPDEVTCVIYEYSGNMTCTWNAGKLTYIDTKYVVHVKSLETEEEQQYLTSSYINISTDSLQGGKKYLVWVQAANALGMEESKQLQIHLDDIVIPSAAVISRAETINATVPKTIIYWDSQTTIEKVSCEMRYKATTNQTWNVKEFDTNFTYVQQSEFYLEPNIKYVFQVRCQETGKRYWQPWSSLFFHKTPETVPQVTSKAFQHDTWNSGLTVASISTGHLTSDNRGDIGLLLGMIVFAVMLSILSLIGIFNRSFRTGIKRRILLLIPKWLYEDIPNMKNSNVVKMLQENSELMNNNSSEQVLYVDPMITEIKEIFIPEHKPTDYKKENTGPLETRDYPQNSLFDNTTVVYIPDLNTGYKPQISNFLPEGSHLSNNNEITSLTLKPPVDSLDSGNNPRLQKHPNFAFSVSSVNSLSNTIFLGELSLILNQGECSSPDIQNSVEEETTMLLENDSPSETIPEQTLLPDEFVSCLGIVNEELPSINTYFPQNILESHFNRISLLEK
# Assay: IL-23R reporter gene assay (HEK-blue IL23 reporter gene cell line, rhIL23 stimulation)
# Format: cell-based
# Details: Inhibition of IL-23R, rhIL23 1 ng/mL, 24 hours
# Procedure, shortened: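 HEK-blue IL23 reporter cells (5000/well, plated overnight) preincubated 0.5 h with compound, then stimulated 24 h at 37°C with rhIL23 at 1 ng/mL final. Supernatant read with Quanti-Blue after 1 h (absorbance 620-655 nm); inhibition normalised to DMSO and unstimulated controls, IC50 from four-parameter fit.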
smiles,measurement,value
"CC(=O)NCCCC[C@@H]1NC(=O)[C@H](Cc2c[nH]c3c(C)cccc23)NC(=O)[C@H]([C@@H](C)O)NC(=O)[C@H](Cc2c[nH]cn2)NC(=O)[C@@H](NC(C)=O)C(C)(C)SSC(C)(C)[C@@H](C(=O)N[C@@H](Cc2ccc(OCCN)c3c2CCC3)C(=O)N[C@@H](Cc2ccc3ccccc3c2)C(=O)NC2(C(=O)N[C@@H](CCC(=O)O)C(=O)N[C@@H](CC(N)=O)C(=O)N[C@@H](Cc3cccnc3)C(=O)N(C)CC(N)=O)CCOCC2)NC1=O [Compound 7] (Ac-[Pen]HT[Trp(7-Me)]K(Ac)[Pen][Phe(4-OC2H4NH2,2,3-(CH2)3)][2Nal][Thp]EN[3Pal][Sar]-NH2; disulfide 1-6)",IC50,6.38 nM
